These molecules were tested on Glucokinase known as hexokinase IV (human GK isoform 1, pancreas form and human GK isoform 2, liver form) (assay: Glucokinase enzymatic activity assay (G6PDH-coupled, NADH absorbance at 340 nm)). Conditions: 5 mM glucose, 1 mM ATP, 37 nM GK, 10 min at room temperature.
Format: biochemical
Method: Glucokinase known as hexokinase IV (human GK isoform 1, pancreas form and human GK isoform 2, liver form) was cloned into an expression vector pET15 fx (Novagen Co.), transformed to E. coli BL21 (DE3) (Invitrogen Co.) strain, expressed, and purified using a nickel column. Then, the glucokinase obtained from dialysis was used in the following assay.
Glucokinase assay was performed by measuring absorbance according to the conventional manner. Briefly speaking, glucokinase converts the substrate glucose to glucose-6-phosphate under certain conditions, and glucose-6-phosphate dehydrogenase irreversibly converts glucose-6-phosphate to gluconate-6-phosphate. During this procedure, NADH is formed, and its absorbance is measured to calculate the enzymatic activity.
In the measurement of the enzymatic activity, each compound was diluted by two-fold from the maximum to the minimum concentrations, and 2 μl of each solution was added to 96 well UV plate (BD bioscience). 60 μl of the first mixture (final concentrations 25 mM Hepes, 25 mM KCl, 2 mM MgCl2, 1 mM DTT) was added, and thoroughly mixed. 38 μl of the enzyme mixture (final concentrations 1 mM ATP, 1 mM NAD, 5 mM glucose, 0.85U G6PDH, 37 nM GK) was added (final volume 100 μl), and the mixture was reacted for 10 min at room temperature. The absorbance of NADH was measured at 340 nm using a UV spectrometer (Molecular Device).
The enzyme activating abilities of the compounds according to the present invention are represented as AC1.5 (the compound concentration at which the enzymatic activity is increased by 1.5 times, nM), which is in the range of 0.001 uM to 30 uM or less, preferably 0.001 uM to 10 uM, more preferably 0.001 uM to 1 uM.
With `OCC[C@@H]1CSC(c2cc3cc(F)cc(NC4CCCC4)c3[nH]2)=N1` [Example 39, 2-[(R)-2-(7-cyclopentylamino-5-fluoro-1H-indol-2-yl)-4,5-dihydro-thiazol-4-yl]-ethanol] the “AC1.5 (the compound concentration at which the enzymatic activity is increased by 1.5 times)” value was 6 nM.
`OCC[C@@H]1CSC(c2cc3cc(F)cc(NC4CCOCC4)c3[nH]2)=N1` [Example 41, 2-{(R)-2-[5-fluoro-7-(tetrahydro-pyran-4-ylamino)-1H-indol-2-yl]-4,5-dihydro-thiazol-4-yl}-ethanol] was tested, and the “AC1.5 (the compound concentration at which the enzymatic activity is increased by 1.5 times)” value was 17 nM.
In the case of `OCC[C@@H]1CSC(c2cc3cccc(NC4CCOCC4)c3[nH]2)=N1` [Example 46, 2-{(R)-2-[7-(tetrahydro-pyran-4-ylamino)-1H-indol-2-yl]-4,5-dihydro-thiazol-4-yl}-ethanol], the “AC1.5 (the compound concentration at which the enzymatic activity is increased by 1.5 times)” value was 96 nM.
For `COC(=O)C[C@@H]1CSC(c2cc3cc(OC)cc(NC4CCCC4)c3[nH]2)=N1` [Example 47, [(R)-2-(7-cyclopentylamino-5-methoxy-1H-indol-2-yl)-4,5-dihydro-thiazol-4-yl]-acetic acid methyl ester], the “AC1.5 (the compound concentration at which the enzymatic activity is increased by 1.5 times)” value was 27 nM.
`COc1cc(NC2CCCC2)c2[nH]c(C3=N[C@H](CC(=O)O)CS3)cc2c1` [Example 48, [(R)-2-(7-cyclopentylamino-5-methoxy-1H-indol-2-yl)-4,5-dihydro-thiazol-4-yl]-acetic acid] was tested, and the “AC1.5 (the compound concentration at which the enzymatic activity is increased by 1.5 times)” value was 9 nM.
In the case of `CCOC(=O)C[C@@H]1CSC(c2cc3cc(OC)cc(NC4CCCC4)c3[nH]2)=N1` [Example 49, [(R)-2-(7-cyclopentylamino-5-methoxy-1H-indol-2-yl)-4,5-dihydro-thiazol-4-yl]-acetic acid ethyl ester], the “AC1.5 (the compound concentration at which the enzymatic activity is increased by 1.5 times)” value was 35 nM.
`COC(=O)C[C@@H]1CSC(c2cc3cc(OC)cc(NC4CCOCC4)c3[nH]2)=N1` [Example 50, {(R)-2-[5-methoxy-7-(tetrahydro-pyran-4-ylamino)-1H-indol-2-yl]-4,5-dihydro-thiazol-4-yl}-acetic acid methyl ester] was tested, and the “AC1.5 (the compound concentration at which the enzymatic activity is increased by 1.5 times)” value was 28 nM.
For `COc1cc(NC2CCOCC2)c2[nH]c(C3=N[C@H](CC(=O)O)CS3)cc2c1` [Example 51, {(R)-2-[5-methoxy-7-(tetrahydro-pyran-4-ylamino)-1H-indol-2-yl]-4,5-dihydro-thiazol-4-yl}-acetic acid], the “AC1.5 (the compound concentration at which the enzymatic activity is increased by 1.5 times)” value was 167 nM.
`CCCOc1cc(NC2CCCC2)c2[nH]c(C3=N[C@H](CC(=O)O)CS3)cc2c1` [Example 53, [(R)-2-(7-cyclopentylamino-5-propoxy-1H-indol-2-yl)-4,5-dihydro-thiazol-4-yl]-acetic acid] was tested, and the “AC1.5 (the compound concentration at which the enzymatic activity is increased by 1.5 times)” value was 97 nM.
In the case of `O=C(O)C[C@@H]1CSC(c2cc3cc(Oc4ccccc4)cc(NC4CCOCC4)c3[nH]2)=N1` [Example 55, {(R)-2-[5-phenoxy-7-(tetrahydro-pyran-4-ylamino)-1H-indol-2-yl]-4,5-dihydro-thiazol-4-yl}-acetic acid], the “AC1.5 (the compound concentration at which the enzymatic activity is increased by 1.5 times)” value was 29 nM.
In the case of `COC(=O)C[C@@H]1CSC(c2cc3cc(Oc4cccnc4)cc(NC4CCCC4)c3[nH]2)=N1` [Example 56, {(R)-2-[7-cyclopentylamino-5-(pyridin-3-yloxy)-1H-indol-2-yl]-4,5-dihydro-thiazol-4-yl}-acetic acid methyl ester], the “AC1.5 (the compound concentration at which the enzymatic activity is increased by 1.5 times)” value was 17 nM.
In the case of `O=C(O)C[C@@H]1CSC(c2cc3cc(Oc4cccnc4)cc(NC4CCCC4)c3[nH]2)=N1` [Example 57, {(R)-2-[7-cyclopentylamino-5-(pyridin-3-yloxy)-1H-indol-2-yl]-4,5-dihydro-thiazol-4-yl}-acetic acid], the “AC1.5 (the compound concentration at which the enzymatic activity is increased by 1.5 times)” value was 21 nM.
`COC(=O)C[C@@H]1CSC(c2cc3cc(Oc4cccnc4)cc(NC4CCOCC4)c3[nH]2)=N1` [Example 58, {(R)-2-[5-(pyridin-3-yloxy)-7-(tetrahydro-pyran-4-ylamino)-1H-indol-2-yl]-4,5-dihydro-thiazol-4-yl}-acetic acid methyl ester] was tested, and the “AC1.5 (the compound concentration at which the enzymatic activity is increased by 1.5 times)” value was 14 nM.
`O=C(O)C[C@@H]1CSC(c2cc3cc(Oc4cccnc4)cc(NC4CCOCC4)c3[nH]2)=N1` [Example 59, {(R)-2-[5-(pyridin-3-yloxy)-7-(tetrahydro-pyran-4-ylamino)-1H-indol-2-yl]-4,5-dihydro-thiazol-4-yl}-acetic acid] was tested, and the “AC1.5 (the compound concentration at which the enzymatic activity is increased by 1.5 times)” value was 28 nM.
With `COC(=O)C[C@@H]1CSC(c2cc3cc(C)cc(NC4CCCC4)c3[nH]2)=N1` [Example 60, [(R)-2-(7-cyclopentylamino-5-methyl-1H-indol-2-yl)-4,5-dihydro-thiazol-4-yl]acetic acid methyl ester] the “AC1.5 (the compound concentration at which the enzymatic activity is increased by 1.5 times)” value was 29 nM.
With `Cc1cc(NC2CCOCC2)c2[nH]c(C3=N[C@H](CC(=O)O)CS3)cc2c1` [Example 62, {(R)-2-[5-methyl-7-(tetrahydro-pyran-4-ylamino)-1H-indol-2-yl]-4,5-dihydro-thiazol-4-yl}-acetic acid] the “AC1.5 (the compound concentration at which the enzymatic activity is increased by 1.5 times)” value was 36 nM.
For `Cc1cc(NC2CCC(=O)CC2)c2[nH]c(C3=N[C@H](CC(=O)O)CS3)cc2c1` [Example 63, {(R)-2-[5-methyl-7-(4-oxo-cyclohexylamino)-1H-indol-2-yl]-4,5-dihydro-thiazol-4-yl}-acetic acid], the “AC1.5 (the compound concentration at which the enzymatic activity is increased by 1.5 times)” value was 119 nM.
For `CS(=O)(=O)c1ccc(Oc2cc(NC3CCCC3)c3[nH]c(C4=N[C@H](CC(=O)O)CS4)cc3c2)cc1` [Example 64, {(R)-2-[7-cyclopentylamino-5-(4-methanesulfonyl-phenoxy)-1H-indol-2-yl]-4,5-dihydro-thiazol-4-yl}-acetic acid], the “AC1.5 (the compound concentration at which the enzymatic activity is increased by 1.5 times)” value was 17 nM.
With `COC(=O)C[C@@H]1CSC(c2cc3cc(COc4ccccc4)cc(NC4CCCC4)c3[nH]2)=N1` [Example 65, [(R)-2-(7-cyclopentylamino-5-phenoxymethyl-1H-indol-2-yl)-4,5-dihydro-thiazol-4-yl]-acetic acid methyl ester] the “AC1.5 (the compound concentration at which the enzymatic activity is increased by 1.5 times)” value was 23 nM.
For `CS(=O)(=O)Cc1cc(NC2CCCC2)c2[nH]c(C3=N[C@H](CC(=O)O)CS3)cc2c1` [Example 69, [(R)-2-(7-cyclopentylamino-5-methanesulfonylmethyl-1H-indol-2-yl)-4,5-dihydro-thiazol-4-yl]-acetic acid], the “AC1.5 (the compound concentration at which the enzymatic activity is increased by 1.5 times)” value was 64 nM.
In the case of `CS(=O)(=O)Cc1cc(NC2CCCC2)c2[nH]c(C3=N[C@H](CCO)CS3)cc2c1` [Example 70, 2-[(R)-2-(7-cyclopentylamino-5-methanesulfonylmethyl-1H-indol-2-yl)-4,5-dihydro-thiazol-4-yl]-ethanol], the “AC1.5 (the compound concentration at which the enzymatic activity is increased by 1.5 times)” value was 32 nM.
With `CS(=O)(=O)Cc1cc(NC2CCCC2)c2[nH]c(C3=N[C@H](CCN4CCOCC4)CS3)cc2c1` [Example 71, cyclopentyl-{5-methanesulfonylmethyl-2-[(R)-4-(2-morpholin-4-yl-ethyl)-4,5-dihydro-thiazol-2-yl]-1H-indol-7-yl}-amine] the “AC1.5 (the compound concentration at which the enzymatic activity is increased by 1.5 times)” value was 31 nM.
With `CC(=O)N1CCN(CC[C@@H]2CSC(c3cc4cc(CS(C)(=O)=O)cc(NC5CCCC5)c4[nH]3)=N2)CC1` [Example 72, 1-(4-{2-[(R)-2-(7-cyclopentylamino-5-methanesulfonylmethyl-1H-indol-2-yl)-4,5-dihydro-thiazol-4-yl]-ethyl}-piperazin-1-yl)-ethanone] the “AC1.5 (the compound concentration at which the enzymatic activity is increased by 1.5 times)” value was 51 nM.
For `O=C(C[C@@H]1CSC(c2cc3cc(Cl)cc(NC4CCCC4)c3[nH]2)=N1)N1CCOCC1` [Example 73, 2-[(R)-2-(5-chloro-7-cyclopentylamino-1H-indol-2-yl)-4,5-dihydro-thiazol-4-yl]-1-morpholin-4-yl-ethanone], the “AC1.5 (the compound concentration at which the enzymatic activity is increased by 1.5 times)” value was 25 nM.
In the case of `O=C(C[C@@H]1CSC(c2cc3cc(Cl)cc(NC4CCCC4)c3[nH]2)=N1)NCCN1CCOCC1` [Example 74, 2-[(R)-2-(5-chloro-7-cyclopentylamino-1H-indol-2-yl)-4,5-dihydro-thiazol-4-yl]-N-(2-morpholin-4-yl-ethyl)-acetamide], the “AC1.5 (the compound concentration at which the enzymatic activity is increased by 1.5 times)” value was 14 nM.
With `O=C(C[C@@H]1CSC(c2cc3cc(Cl)cc(NC4CCCC4)c3[nH]2)=N1)NCCCN1CCOCC1` [Example 75, 2-[(R)-2-(5-chloro-7-cyclopentylamino-1H-indol-2-yl)-4,5-dihydro-thiazol-4-yl]-N-(3-morpholin-4-yl-propyl)-acetamide] the “AC1.5 (the compound concentration at which the enzymatic activity is increased by 1.5 times)” value was 21 nM.
`CNC(=O)C[C@@H]1CSC(c2cc3cc(Cl)cc(NC4CCCC4)c3[nH]2)=N1` [Example 76, 2-[(R)-2-(5-chloro-7-cyclopentylamino-1H-indol-2-yl)-4,5-dihydro-thiazol-4-yl]-N-methyl-acetamide] was tested, and the “AC1.5 (the compound concentration at which the enzymatic activity is increased by 1.5 times)” value was 14 nM.

— patent US8309586B2, “Glucokinase activators and pharmaceutical compositions containing the same as an active ingredient” (LG Life Sciences Ltd., priority 2007, dated 2012)
